Reference: EP2229935A1, “Peptide derivatives or pharmaceutically acceptable salts thereof, method for producing the same, use of said derivatives and pharmaceutical composition” (Nebolsin, Vladimir Evgenievich, priority 1997, dated 1999)
Read-outs that look alike come from different tables or passages of the source. Marks after values point to notes of the source that are not given here.

How the values were obtained:
white mongrel male rats = experiment: Paw edema induced by Freund's complete adjuvant; format: in vivo
Method: Experiment was carried out on white mongrel male rats weghing 280-300 g. The model of paw edema induced by Freund's complete adjuvant (FCA), was reproduced according to the method of Ezamuzie and Umezurike [Ezamuzie Ch., Umezurike C.C. Effect of histamine H2-receptor antagonists on acute inflammatory of the rat paw oedema. J. Pharmacol. (1989), Vol. 41, pp. 261-265]. Paw volume measurement was done using a plethysmograph (Ugo Basile). Inhibition of inflammatory reaction expressed in percent, as calculated according to the formula: 100-[(R-L(exper.))/(L):(R-L(control))/(L)x100](%) [formula] where R - the right paw volume, L - the left paw volume.
Each group included 10 animals.
Group of animals: • Group 1 - control, animals were administered 0.5 ml of 1% starch solution. • Group 2 - animals were administered the compound XLVIII. • Group 3 - animals were administered the compound III. • Group 4 - animals were administered Naproxene.

mongrel male rats = conditions: po, 96 h
Method: Hypolipidemic activity of the compounds of general formula (I) was studied on the model of experimental hyperlipidemia [Arichi H., Kumura H.O. Effects of stibens compounds of roots of polygonum cuspidatium on the lipid metabolism. […] Each group of animals included 10 rats. […] Blood samples were taken for analysis 18 hours after the last administration of the test substances during which period food was taken away from rats.
The following parameters were determined: total cholesterol (total CS); high density lipoprotein cholesterol (HDL-CS); low density lipoprotein cholesterol and very low density lipoprotein cholesterol (LDL-CS and VLDL-CS); triglycerides (TG). Blood serum CS level was determined according to the Ilk method [Biochemical examination in the clinic. […] HDL-CS level was measured in supernatant following heparine-manganese precipitation of LDL+VLDL [Titov V.N., Brener E.D., Khaltaiev N.G., Zadoya A.A., Tvorogova M.G. A method and diagnostic significance of cholesterol level study in α-lipoproteins. […] LDL-CS level determination was carried out by calculation according to the formula presented in the work Friedwald W.T. [Friedwald W.T., Levy K.J., Leus R. Fat transport in lipoproteins: an integrated approach to mechanism and disorders.
To assess the effect of the test compounds on the ratio of atherogenic and antiatherogenic blood serum lipoproteins, cholesterol index (Kcs) was calculated according to the formula presented in the work [Klimov A.N., Nikulcheva N.G. Lipoproteins, dylipoproteinemias and atherosclerosis.
Blood serum TG level was determined using the conventional method [Friedwald W.T., Levy R.I., Fredrickson D.S. Estimation of concentration of low-density lipoprotein cholesterol in plasma, without use of preparative ultracentrifuge.

mongrel mice = experiment: Acute hypobaric hypoxia model (AHBH); format: in vivo; conditions: oral 4 days; for Effect in percent: lifetime relative to control; for Lifetime under hypoxic conditions (minutes): mice, 170-185 mm Hg
Method: The tests of determining average lifetime of animals in a closed volume and on the model of acute hypobaric hypoxia at the minimum atmospheric rarefaction (170-185 mm Hg) were used to study antihypoxic activity of the compunds of general formula (I).
Simulation of AHBH was done in a flow-through chamber at temperature 22°C. Experiments were carried out on mongrel mice with initial body mass 20 g at the minimum rarefaction 170-185 mm Hg, that corresponds to the altitude of 10500-11000 m. Lift rate was 35 m/second. Each group included 15 animals. Compounds were administered orally, lift on to altitude was performed 2 hours after the last administration.
Groups of animals: • Group 1 - intact control -administration of normal saline four times. • Groups 2 and 3 - administration of the compound III at doses 50 and 500 µg/kg for 4 days. • Group 4 - single administration of sodium oxybutyrate at a dose […].

[1] = tested on: Strain Aichi of type A human influenza virus; format: in vivo; conditions: for Survival rate in percent: series with Control - 2 (34.5); for Protection degree in percent: series with Control - 2
mongrel guinea-pigs [2] = conditions: po, 0.05 mg/kg
mongrel guinea-pigs [3] = experiment: Food anaphylaxis (active anaphylactic shock) in OVA-sensitized guinea pigs; conditions: oral 3 days before provoking anaphylaxis, 50 µg/kg
mongrel male mice = experiment: Delayed hypersensitivity induced by picryl chloride (TCB), local ointment; format: in vivo
Method: Effect study of the compounds on the delayed type hypersensitivity reaction induced in mice by 2.4.6-trichlorobenzol (TCB) was carried out according to the method of Tarayre et al. [Tarayre J.P., Barbara M., Aliaga M., Tisne-Versilles. Comparative actions of immunosuppressants, glucocorticoids and non-steroidal antiinflammatory drugs on various models of delayed hypersensitivity and on a non-immune inflammation in mice. Arzneim.-Forsch. Drug Res. (1990), Vol. 40, pip.1125-1131].
Studies were conducted on mongrel male mice with initial body mass 30-35 g. Each group included 10 animals. Mice were sensitized with 0.1 ml 3% TCB solution in acetone application on a shaved abdominal area. In 7 days, the anaphylaxis-provoking TCB dose (0.025 ml of 3% solution) was applied on both surfaces of the right ear. In 30 minutes 0.05 ml of the test ointment were rubbed into the same surfaces. 24 hours after edema induction, mice were sacrified, ears were cut off and weighed. Allergic reaction intensity was assessed by change in weight in grams of the right ear (the test one) in relation to the left ear (the control ear).
Allergic reaction inhibition expressed in percent was calculated according to the formula: 100-[(R-L(exper.))/(L):(R-L(control))/(L)x100](%) [formula] where R - the right ear weight, L - the left ear weight.
The test compounds were applied on the ear in the form of 1% and 5% ointment the base of which were 10% methylcellulose solution and propylene glycol at 1:1 ratio.
Groups of animals: • Group 1 - control, ointment base without active substance was applied on the ear of animals. • Group 2 - ointment base comprising 1% compound III was applied on the ear of animals. • Group 3 - ointment base comprising 1% compound XVII was applied on the ear of animals. • Group 4 - ointment base comprising 5% compound XLVIII was applied on the ear of animals.
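For HDL-CS in this document: serum drawn 18 h after the final dose from rats deprived of food over that interval, groups of 10 animals.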
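For Kcs in this document: serum drawn 18 h after the final dose from rats deprived of food over that interval, groups of 10 animals.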
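For LDL-CS+ VLDL-CS in this document: serum drawn 18 h after the final dose from rats deprived of food over that interval, groups of 10 animals.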
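For Total CS in this document: serum drawn 18 h after the final dose from rats deprived of food over that interval, groups of 10 animals.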

Compound: O=C(O)CCCC(=O)NCCc1c[nH]cn1 [compound III, N-GLUTARYLHISTAMINE]
- Volume of paws (conditional units) Right (white mongrel male rats): 1.85 ± 0.62 conditional units
- Volume of paws (conditional units) left (white mongrel male rats): 1.25 ± 0.34 conditional units
- HDL-CS (mongrel male rats; 0.05 mg/kg): 46,1±2,8**^A
- Kcs (mongrel male rats; 0.05 mg/kg): 0,9±0,04***^A
- LDL-CS+ VLDL-CS (mongrel male rats; 0.05 mg/kg): 41,7±3,1***^A
- Total CS (mongrel male rats; 0.05 mg/kg): 87,8±2,8*^A
- Triglycerides (mongrel male rats; 0.05 mg/kg): 136,4±9,7
- HDL-CS (mongrel male rats; 0.5 mg/kg): 53,1±6,2*^A
- Kcs (mongrel male rats; 0.5 mg/kg): 0,62±0,05***^A
- LDL-CS+ VLDL-CS (mongrel male rats; 0.5 mg/kg): 33,1±2,9***^A
- Total CS (mongrel male rats; 0.5 mg/kg): 86,2±5,6
- Triglycerides (mongrel male rats; 0.5 mg/kg): 90,0±6,7***^A
- Effect in percent (mongrel mice; 50 µg/kg): 105 ± 3,5%
- Effect in percent (mongrel mice; 500 µg/kg): 113 ± 5,2%
- Lifetime under hypoxic conditions (minutes) (mongrel mice; 50 µg/kg): 322,0 ± 10,9 minutes
- Lifetime under hypoxic conditions (minutes) (mongrel mice; 500 µg/kg): 345,3 ± 15,9 minutes
- MLT ([1]; series with Control - 2 (9.1), 50 µg/kg orally, 3 days before and 10 days following infection): 10.1 days
- MLT, days ([1]; series with Control - 2 (9.1), 500 µg/kg orally, 3 days before and 10 days following infection): 11.5*^2 days
- Survival rate in percent ([1]; 50 µg/kg orally): 86.6*^2%
- Survival rate in percent ([1]; 500 µg/kg orally): 76.6*^2%
- Protection degree in percent ([1]; 50 µg/kg orally): 52.1%
- Protection degree in percent ([1]; 500 µg/kg orally): 42.2%
- Anaphylactic index (mongrel guinea-pigs [2]): 0.83*
- Seizures in percent (mongrel guinea-pigs [2]): 13,3* percent
- Lethality in percent (mongrel guinea-pigs [3]): 6.7** percent
- Weight of years (g) left (mongrel male mice): 15.4 ± 1.12 g
- Reaction inhibition (%) (mongrel male mice; mice, TCB, 1% ointment): 38%
- weight increment (mongrel male mice; mice, TCB, 1% ointment): 4.9 ± 0.5 g
